According to US12054498B2, “Heteroaromatic macrocyclic ether chemotherapeutic agents” (Nuvalent, Inc., priority 2020, dated 2024):

Experiments:
[1] = target: T1, ALK-wt (Homo sapiens, UniProt Q9UM73); assay: Biochemical kinase assay, ALK-wt kinase domain; conditions: apparent inhibitory constant, Morrison equation; ATP 2 mM in substrate solution; read-out: ALK-wt Ki^app
T1 construct: purchased Carna 08-518
In short: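 Apparent Ki values come from fitting initial reaction rates against inhibitor concentration to the Morrison equation. Rates were taken from the linear phase of fluorogenic substrate phosphorylation (AQT0101 for ALK and ROS1, AQT0104 for TRKA; 26 μM in substrate solution with 2 mM ATP), monitored at 485 nm over 120 min at 30° C.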

[2] = target: T2, ALK L1196M/G1202R (Homo sapiens, UniProt Q9UM73, G1202R/L1196M); assay: Biochemical kinase assay, ALK L1196M/G1202R kinase domain; conditions: apparent inhibitory constant, Morrison equation; ATP 2 mM in substrate solution; read-out: ALK-L1196M-G1202R Ki^app
T2 construct: purchased SignalChem A19-12NG
In short: (§1)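 Kinase domains (in kinase solution: ROS1-G2032R 0.5 nM, ROS1-wt 0.6 nM, TRKA 1 nM, ALK L1196M/G1202R 3 nM) were mixed with compound and a substrate solution of 2 mM ATP plus 26 μM fluorogenic AQT0101 (ALK, ROS1) or AQT0104 (TRKA) in HEPES pH 7.5/MgCl2. Fluorescence was followed for 120 min at 30° C; Ki^app was obtained by Morrison fit of initial rates.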

[3] = target: T3, ROS1-wt (Homo sapiens, UniProt P08922); assay: Biochemical kinase assay, ROS1-wt kinase domain; conditions: apparent inhibitory constant, Morrison equation; ATP 2 mM in substrate solution; read-out: ROS1-wt Ki^app
T3 construct: purchased Carna 08-163
In short: (§2)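 Compounds, as 100-fold DMSO stocks, were dispensed first, then substrate mix was added (ATP 2 mM, AQT0101 26 μM, in 50 mM HEPES pH 7.5/10 mM MgCl2). Reactions ran at 30 °C with fluorescence logged every 2 min over 120 min. Apparent inhibition constants came from fitting rates to Morrison's tight-binding equation.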

[4] = target: T4, ROS1-G2032R (Homo sapiens, UniProt P08922, G2032R); assay: Biochemical kinase assay, ROS1-G2032R kinase domain; conditions: apparent inhibitory constant, Morrison equation; ATP 2 mM in substrate solution; read-out: ROS1-G2032R Ki^app
T4 construct: purchased SignalChem R14-12BG
In short: as §2

[5] = target: T5, TRKA-wt (Homo sapiens, UniProt P04629); assay: Biochemical kinase assay, TRKA-wt kinase domain; conditions: apparent inhibitory constant, Morrison equation; ATP 2 mM in substrate solution; read-out: TRKA-wt Ki^app
T5 construct: or TRKA-wt (1 nM, BPS Bio, 40280) kinase domains in buffer; purchased BPS Bio 40280
In short: as §1

[6] = target: T6, Ba/F3 cells CD74-ROS1 wild-type (wt) (Homo sapiens, UniProt P08922); assay: Ba/F3 cell proliferation assay, CD74-ROS1 wild-type; format: cell-based; conditions: 72 hours, CellTiter-Glo
T6 construct: fusion of the C-terminus of ROS1 with the N-terminus of various partner proteins; host or cells: Ba/F3 (RIKEN), retroviral pMSCV-puro; the other entry of the earlier key: CD74 (P04233, HLA class II histocompatibility antigen gamma chain)
In short: (§3)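 Viability read by CellTiter-Glo luminescence after 72 h exposure to 3-fold serial compound dilutions, four-parameter logistic fitting giving IC50.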

[7] = target: T7, Ba/F3 cells CD74-ROS1 G2032R (Homo sapiens, UniProt P08922, G2032R); assay: Ba/F3 cell proliferation assay, CD74-ROS1 G2032R; format: cell-based; conditions: 72 hours, CellTiter-Glo
T7 construct: fusion of the C-terminus of ROS1 with the N-terminus of various partner proteins; host or cells: Ba/F3 (RIKEN), retroviral pMSCV-puro; the other entry of the earlier key: CD74 (P04233, HLA class II histocompatibility antigen gamma chain)
In short: as §3

[8] = target: T8, Ba/F3 cells EML4-ALK wt (variant 1) (Homo sapiens, UniProt Q9UM73); assay: Ba/F3 cell proliferation assay, EML4-ALK wt (variant 1); format: cell-based; conditions: 72 hours, CellTiter-Glo
T8 construct: echinoderm microtubule-associated protein-like 4 (EML4) gene and the ALK tyrosine kinase domain; host or cells: Ba/F3 (RIKEN), retroviral pMSCV-puro; the other entry of the earlier key: EML4 (Q9HC35, Echinoderm microtubule-associated protein-like 4)
In short: (§4)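 IL-3-independent Ba/F3 lines stably expressing the fusion kinase (retroviral, puromycin-selected), 1,000 cells/well, treated with 3-fold compound dilutions for 72 h. Viability by CellTiter-Glo luminescence; IC50 from four-parameter logistic fit of percent inhibition.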

[9] = target: T9, Ba/F3 cells EML4-ALK L1196M/G1202R (variant 1) (Homo sapiens, UniProt Q9UM73, G1202R/L1196M); assay: Ba/F3 cell proliferation assay, EML4-ALK L1196M/G1202R (variant 1); format: cell-based; conditions: 72 hours, CellTiter-Glo
T9 construct: echinoderm microtubule-associated protein-like 4 (EML4) gene and the ALK tyrosine kinase domain; host or cells: Ba/F3 (RIKEN), retroviral pMSCV-puro; the other entry of the earlier key: EML4 (Q9HC35, Echinoderm microtubule-associated protein-like 4)
In short: as §4

[10] = target: T10, Ba/F3 cells TPM3-TRKA (Homo sapiens, UniProt P04629); assay: Ba/F3 cell proliferation assay, TPM3-TRKA; format: cell-based; conditions: 72 hours, CellTiter-Glo, read-out: TPM3-NTRK1-wt IC50
T10 construct: host or cells: Ba/F3 (RIKEN), retroviral pMSCV-puro; the other entry of the earlier key: TPM3 (P06753, Tropomyosin alpha-3 chain)
In short: as §4

[11] = tested on: TPM3-NTRK1-wt IC50 / primary target IC50 (e.g. CD74-ROS1-wt); assay: TRKA selectivity in Ba/F3 cells (TRKA potency divided by primary target potency); format: cell-based; conditions: for TPM3-NTRK1-wt/CD74-ROS1-G2032R selectivity ratio: TRKA potency / CD74-ROS1-G2032R potency; for TPM3-NTRK1-wt/CD74-ROS1-wt selectivity ratio: TRKA potency / CD74-ROS1-wt potency; for TPM3-NTRK1-wt/EML4-ALK-L1196M-G1202R selectivity ratio: TRKA potency / EML4-ALK-L1196M-G1202R potency; for TPM3-NTRK1-wt/EML4-ALK-wt selectivity ratio: TRKA potency / EML4-ALK-wt potency
Procedure: TRKA selectivity was calculated by dividing a compound's TRKA potency by its primary target potency (e.g. TPM3-NTRK1-wt IC50/CD74-ROS1-wt IC50). Compound selectivity can be interpreted by binning ratio values: bin A for very high selectivity, ratio >30-fold; bin B for high selectivity, ratio >10-fold; bin C for moderate selectivity, ratio ≥1; and bin D for low selectivity, ratio <1. […] (nd=not determined).

T2 sequence (Q9UM73 1116-1392 L1196M/G1202R limits assumed): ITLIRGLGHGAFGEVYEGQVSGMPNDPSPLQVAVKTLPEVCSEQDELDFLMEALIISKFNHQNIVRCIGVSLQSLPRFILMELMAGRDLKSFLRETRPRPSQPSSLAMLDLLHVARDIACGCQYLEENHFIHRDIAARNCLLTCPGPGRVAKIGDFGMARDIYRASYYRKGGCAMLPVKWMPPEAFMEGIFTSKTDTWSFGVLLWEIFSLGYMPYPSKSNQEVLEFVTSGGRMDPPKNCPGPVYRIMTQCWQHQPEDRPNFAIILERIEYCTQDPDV
T1 sequence (Q9UM73 1116-1392 limits assumed): as the sequence (Q9UM73 1116-1392 L1196M/G1202R limits assumed) above, with M81L, R87G counted along it
T7 sequence (P08922 1883-2347 G2032R limits assumed): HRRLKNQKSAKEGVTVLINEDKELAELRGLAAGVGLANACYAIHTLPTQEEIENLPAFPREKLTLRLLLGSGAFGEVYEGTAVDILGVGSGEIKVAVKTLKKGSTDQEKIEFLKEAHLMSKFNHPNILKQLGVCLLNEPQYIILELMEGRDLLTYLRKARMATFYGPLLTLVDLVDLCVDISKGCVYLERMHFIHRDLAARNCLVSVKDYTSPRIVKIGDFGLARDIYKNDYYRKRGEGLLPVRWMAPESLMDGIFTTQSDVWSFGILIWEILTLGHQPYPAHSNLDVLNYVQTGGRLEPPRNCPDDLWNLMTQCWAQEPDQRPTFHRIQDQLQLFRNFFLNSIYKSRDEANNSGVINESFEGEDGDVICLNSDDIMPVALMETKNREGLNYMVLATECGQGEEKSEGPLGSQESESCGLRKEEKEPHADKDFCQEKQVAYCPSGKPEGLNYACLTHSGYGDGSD
T4 sequence (P08922 1945-2222 G2032R limits assumed): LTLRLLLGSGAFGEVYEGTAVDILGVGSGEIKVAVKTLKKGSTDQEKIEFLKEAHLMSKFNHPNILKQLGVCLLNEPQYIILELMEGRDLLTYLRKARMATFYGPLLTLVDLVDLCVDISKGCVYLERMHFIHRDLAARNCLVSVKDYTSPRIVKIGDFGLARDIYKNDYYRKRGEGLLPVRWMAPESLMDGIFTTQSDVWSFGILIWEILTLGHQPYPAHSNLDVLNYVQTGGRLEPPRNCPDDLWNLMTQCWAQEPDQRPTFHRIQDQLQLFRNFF
T9 sequence (Q9UM73 with tags, fused parts or gaps L1196M/G1202R): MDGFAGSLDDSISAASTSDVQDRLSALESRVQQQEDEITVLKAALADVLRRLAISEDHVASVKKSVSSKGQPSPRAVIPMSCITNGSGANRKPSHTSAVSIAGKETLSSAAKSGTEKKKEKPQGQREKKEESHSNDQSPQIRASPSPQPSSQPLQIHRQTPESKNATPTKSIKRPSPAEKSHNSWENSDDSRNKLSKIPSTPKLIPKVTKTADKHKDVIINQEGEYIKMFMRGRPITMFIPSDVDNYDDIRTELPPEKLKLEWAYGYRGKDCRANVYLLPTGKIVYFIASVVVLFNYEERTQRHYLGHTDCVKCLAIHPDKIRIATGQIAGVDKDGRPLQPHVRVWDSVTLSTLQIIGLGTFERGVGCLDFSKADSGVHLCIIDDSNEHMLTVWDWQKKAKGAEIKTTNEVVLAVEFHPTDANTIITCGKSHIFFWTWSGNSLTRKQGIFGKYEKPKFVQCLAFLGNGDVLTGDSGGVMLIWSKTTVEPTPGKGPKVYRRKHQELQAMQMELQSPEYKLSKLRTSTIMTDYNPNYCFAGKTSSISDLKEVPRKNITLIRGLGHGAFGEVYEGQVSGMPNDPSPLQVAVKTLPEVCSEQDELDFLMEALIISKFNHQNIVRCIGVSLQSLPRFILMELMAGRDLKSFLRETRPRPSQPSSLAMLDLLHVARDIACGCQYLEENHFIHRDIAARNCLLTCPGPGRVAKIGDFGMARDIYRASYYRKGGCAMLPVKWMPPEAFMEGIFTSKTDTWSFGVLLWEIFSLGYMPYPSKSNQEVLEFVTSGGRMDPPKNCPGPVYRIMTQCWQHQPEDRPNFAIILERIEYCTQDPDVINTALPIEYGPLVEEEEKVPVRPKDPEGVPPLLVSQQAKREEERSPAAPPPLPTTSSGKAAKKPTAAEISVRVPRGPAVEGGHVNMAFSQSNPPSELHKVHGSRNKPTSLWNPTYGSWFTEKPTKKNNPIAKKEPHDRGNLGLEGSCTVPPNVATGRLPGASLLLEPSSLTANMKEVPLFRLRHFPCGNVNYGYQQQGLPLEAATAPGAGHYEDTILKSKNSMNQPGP
T3 sequence (P08922 1945-2222 limits assumed): as the sequence (P08922 1945-2222 G2032R limits assumed) above, with R88G counted along it
T5 sequence (P04629 510-781 limits assumed): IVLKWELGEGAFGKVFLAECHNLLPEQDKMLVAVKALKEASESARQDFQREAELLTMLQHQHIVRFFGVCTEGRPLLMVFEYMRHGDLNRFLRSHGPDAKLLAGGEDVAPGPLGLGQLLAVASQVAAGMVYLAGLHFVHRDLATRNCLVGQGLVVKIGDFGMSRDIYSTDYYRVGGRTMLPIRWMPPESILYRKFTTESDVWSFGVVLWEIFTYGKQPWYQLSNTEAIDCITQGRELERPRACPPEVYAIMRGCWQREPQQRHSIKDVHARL
T10 sequence (P04629 510-796 limits assumed): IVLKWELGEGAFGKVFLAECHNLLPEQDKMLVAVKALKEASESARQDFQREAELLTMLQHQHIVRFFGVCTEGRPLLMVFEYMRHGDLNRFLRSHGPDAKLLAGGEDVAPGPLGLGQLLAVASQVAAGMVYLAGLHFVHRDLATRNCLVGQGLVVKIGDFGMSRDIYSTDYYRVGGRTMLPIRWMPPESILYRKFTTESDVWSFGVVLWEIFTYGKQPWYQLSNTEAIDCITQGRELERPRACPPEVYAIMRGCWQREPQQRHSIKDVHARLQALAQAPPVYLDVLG
T8 sequence (Q9UM73 with tags, fused parts or gaps): as the sequence (Q9UM73 with tags, fused parts or gaps L1196M/G1202R) above, with M635L, R641G counted along it
T6 sequence (P08922 1883-2347 limits assumed): as the sequence (P08922 1883-2347 G2032R limits assumed) above, with R150G counted along it

Row | Compound | Ki [1] | Ki [2] | Ki [3] | Ki [4] | Ki [5] | IC50 [6] | IC50 [7] | IC50 [8] | IC50 [9] | IC50 [10] | TPM3-NTRK1-wt/CD74-ROS1-G2032R selectivity ratio [11] | TPM3-NTRK1-wt/CD74-ROS1-wt selectivity ratio [11] | TPM3-NTRK1-wt/EML4-ALK-L1196M-G1202R selectivity ratio [11] | TPM3-NTRK1-wt/EML4-ALK-wt selectivity ratio [11]
1 | CCn1ncc2c1-c1cnc(N)c(c1)OC(C)c1cc(F)ccc1-c1cccnc1C2 (stereo not shown) [Example 34, 3-ethyl-17-fluoro-20-methyl-21-oxa-3,4,9,24-tetraazapentacyclo[20.3.1.0^2,^6.0^8,^13.0^14,^19]hexacosa-1(25),2(6),4,8(13),9,11,14,16,18,22(26),23-undecaen-23-amine] | < 50 nM | < 50 nM | < 50 nM | < 50 nM | 50 to 500 nM | 0.1 to 50 nM | 0.1 to 50 nM | 0.1 to 50 nM | 0.1 to 50 nM | 50 to 500 nM | A (bin A for very high selectivity, ratio >30-fold) | A (bin A for very high selectivity, ratio >30-fold) | B (bin B for high selectivity, ratio >10-fold) | A (bin A for very high selectivity, ratio >30-fold)
2 | C[C@H]1Oc2cc(cnc2N)-c2c(C#N)ncn2Cc2ncncc2-c2ccc(F)cc21 [Example 18, (20R)-23-amino-17-fluoro-20-methyl-21-oxa-4,6,9,11,24-pentaazapentacyclo[20.3.1.0^2,^6.0^8,^13.0^14,^19]hexacosa-1(25),2,4,8(13),9,11,14,16,18,22(26),23-undecaene-3-carbonitrile] | < 50 nM | 50 to 500 nM | < 50 nM | 50 to 500 nM | > 500 nM | 0.1 to 50 nM | 50 to 500 nM | 50 to 500 nM | > 500 nM | > 500 nM | A (bin A for very high selectivity, ratio >30-fold) | A (bin A for very high selectivity, ratio >30-fold) | C (bin C for moderate selectivity, ratio ≥1) | A (bin A for very high selectivity, ratio >30-fold)
3 | C[C@H]1Oc2cc(cnc2N)-c2c(CC3CC3)noc2Cc2nn(C)nc2-c2ccc(F)cc21 [Example 63, (19R)-3-(cyclopropylmethyl)-16-fluoro-10,19-dimethyl-5,20-dioxa-4,9,1 0,11,23-pentaazapentacyclo [19.3.1.0^2,^6.0^8,^12.0^13,^18]pentacosa-1(24),2(6),3,8,11,13,15,17,21(25),22-decaen-22-amine] | < 50 nM | < 50 nM | < 50 nM | < 50 nM | > 500 nM | 0.1 to 50 nM | 0.1 to 50 nM | 0.1 to 50 nM | 0.1 to 50 nM | 50 to 500 nM | A (bin A for very high selectivity, ratio >30-fold) | A (bin A for very high selectivity, ratio >30-fold) | B (bin B for high selectivity, ratio >10-fold) | A (bin A for very high selectivity, ratio >30-fold)
4 | C[C@H]1Oc2cc(cnc2N)-c2c(cnn2CC2CC2)Cc2ncc(F)cc2-c2ccc(F)cc21 [Example 72, (20R)-3-(cyclopropylmethyl)-11,17-difluoro-20-methyl-21-oxa-3,4,9,24-tetraazapentacyclo[20.3.1.0^2,^6.0^8,^13.0^14,^19]hexacosa-1(25),2(6),4,8(13),9,11,14,16,18,22(26),23-undecaen-23-amine] | < 50 nM | < 50 nM | < 50 nM | < 50 nM | 50 to 500 nM | 0.1 to 50 nM | 0.1 to 50 nM | 0.1 to 50 nM | 0.1 to 50 nM | 50 to 500 nM | A (bin A for very high selectivity, ratio >30-fold) | A (bin A for very high selectivity, ratio >30-fold) | A (bin A for very high selectivity, ratio >30-fold) | A (bin A for very high selectivity, ratio >30-fold)
5 | CCn1nnc2c1-c1cnc(N)c(c1)O[C@H](C)c1cc(F)ccc1-c1scnc1C2 [Example 53, (19R)-3-ethyl-16-fluoro-19-methyl-20-oxa-11-thia-3,4,5,9,23-pentaazapentacyclo[19.3.1.0^2,^6.0^8,^12.0^13,^18]pentacosa-1(24),2(6).4,8(12),9,13,15,17,21(25),22-decaen-22-amine] | < 50 nM | < 50 nM | < 50 nM | < 50 nM | > 500 nM | 0.1 to 50 nM | 0.1 to 50 nM | 0.1 to 50 nM | 50 to 500 nM | > 500 nM | A (bin A for very high selectivity, ratio >30-fold) | A (bin A for very high selectivity, ratio >30-fold) | C (bin C for moderate selectivity, ratio ≥1) | B (bin B for high selectivity, ratio >10-fold)
